Laboratory results published in ChEMBL document CHEMBL1141155, “The protein farnesyltransferase inhibitor Tipifarnib as a new lead for the development of drugs against Chagas disease” (J Med Chem, 2005).
pEC50, pIC50: −log10 of the molar value.

How the values were obtained:
[1] = Inhibitory concentration against Protein farnesyltransferase of Trypanosoma cruzi
Trypanosoma cruzi = experiment: Inhibition of Trypanosoma cruzi growth; format: functional; details: read-out: ED50 (the source's name)

Cn1cncc1[C@@](N)(c1ccc(Cl)cc1)c1ccc2c(c1)c(-c1cccc(Cl)c1)cc(=O)n2C [TIPIFARNIB]
pIC50 [1]: ~7.12 | pEC50 (Trypanosoma cruzi): 8.40
